# According to patent US8420592B2, “Methods of treatment using single doses of oritavancin” (The Medicines Company, priority 2008, dated 2013):
# Like-named read-outs stand apart in the source and are kept apart here.
# Assay: clinical
# Assay type: in vivo, human
# Method: A pharmacokinetic (PK) analysis was conducted of oritavancin from patients having complicated skin and skin structure infections (cSSSI) or bacteremia. The population for the analysis consisted of oritavancin-treated subjects and patients from 12 studies, consisting of nine Phase 1 studies, two Phase 2 studies, and one Phase 2/3 study. Oritavancin was administered as both single- and multiple-dose intravenous (IV) infusions in fixed doses ranging from 100 to 800 mg or weight-based doses ranging from 0.02 to 10 mg/kg.
# Results: The final analysis population contained data from a total of 560 subjects: 200 from the Phase 1 studies, 86 from the Phase 2 bacteremia study, 29 from the Phase 2 cSSSI study, and 245 from the Phase 2/3 cSSSI study. The final pharmacokinetic analysis dataset contained a total of 6,336 oritavancin plasma concentrations, collected from these 560 subjects, of which 6,290 oritavancin concentrations were included in the results. The majority of subjects (>90%) contributed at least six samples to the population pharmacokinetic analysis.
# A wide range of oritavancin doses was administered across the studies included in the population PK analysis, where 42% (236 of 560) of subjects received ≧400 mg, while 25% (142 of 560) received 800 mg or more. A histogram of the oritavancin doses administered is shown in FIG. 6, with midpoint values for each dose range shown over each bar. The duration over which oritavancin was infused ranged from 0.13 to 6.5 hr across all studies; however, oritavancin was administered over 1 hr for the majority of subjects. Histograms of the actual infusion durations and rates are shown in FIGS. 7 and 8, respectively, with midpoint values shown for each infusion duration or rate over each bar.
# The final structural PK model for oritavancin in this analysis was a three-compartment model (one central, two peripheral) with a zero-order intravenous infusion rate and first-order, linear elimination. The model fit the data well (data not shown), regardless of the observed concentration or administered dose. If a nonlinear model had been necessary, there would have been significant bias in the weighted residuals at the lowest and/or highest concentrations and/or doses. No trends for decreasing CL with increasing dose were found.
smiles,measurement,setting,value
"CN[C@H](CC(C)C)C(=O)N[C@H]1C(=O)N[C@@H](CC(N)=O)C(=O)N[C@H]2C(=O)N[C@H]3C(=O)N[C@H](C(=O)N[C@H](C(=O)O)c4cc(O)cc(O)c4-c4cc3ccc4O)[C@H](O[C@H]3C[C@](C)(N)[C@@H](O)[C@H](C)O3)c3ccc(c(Cl)c3)Oc3cc2cc(c3O[C@@H]2O[C@H](CO)[C@@H](O)[C@H](O)[C@H]2O[C@H]2C[C@](C)(NCc3ccc(-c4ccc(Cl)cc4)cc3)[C@@H](O)[C@H](C)O2)Oc2ccc(cc2Cl)[C@H]1O [Oritavancin, N-(4-(4-chlorophenyl)benzyl)A82846B]","Cmin, Mean",180-330 mg/day (n = 140),2580 ng/mL
same,"Cmin, Median",180-330 mg/day (n = 140),2200 ng/mL
same,"Cmin, Mean",<180 mg/day (n = 181),1170 ng/mL
same,"Cmin, Median",<180 mg/day (n = 181),949 ng/mL
same,"Cmin, Mean",>330 mg/day (n = 239),12500 ng/mL
same,"Cmin, Median",>330 mg/day (n = 239),11000 ng/mL
same,Vc,"healthy subjects, Multiple Dose (n = 109)",5.10 L
same,Cmin,"healthy subjects, Multiple Dose (n = 109), normalized to a dose of 200 mg, after a median of 4 (2-14) days",11500 ng/mL
same,Vc,"healthy subjects, Single Dose (n = 91)",5.30 L
same,Cmin,"healthy subjects, Single Dose (n = 91), normalized to a dose of 200 mg",3300 ng/mL
same,Plasma half-life,"human, in vivo",prolonged
same,AUC(0-t),"human, in vivo, 200 mg, healthy subjects, Multiple Dose (n = 109), normalized to a dose of 200 mg, after a median of 4 (2-14) days, read-out: AUC0-24",459 µg·h/mL
same,Cmax,"human, in vivo, 200 mg, healthy subjects, Multiple Dose (n = 109), normalized to a dose of 200 mg, after a median of 4 (2-14) days, read-out: Cmax",46800 ng/mL
same,AUC(0-t),"human, in vivo, 200 mg, healthy subjects, Single Dose (n = 91), normalized to a dose of 200 mg, read-out: AUC0-24",216 µg·h/mL
same,Cmax,"human, in vivo, 200 mg, healthy subjects, Single Dose (n = 91), normalized to a dose of 200 mg, read-out: Cmax",33900 ng/mL
same,AUC(0-t),"human, in vivo, 180-330 mg/day (n = 140), read-out: AUC0-24, Mean",181 µg·h/mL
same,AUC(0-t),"human, in vivo, 180-330 mg/day (n = 140), read-out: AUC0-24, Median",171 µg·h/mL
same,clearance,"human, in vivo, 180-330 mg/day (n = 140), read-out: CL, Mean (converted)",9.57 mL/min
same,clearance,"human, in vivo, 180-330 mg/day (n = 140), read-out: CL, Median (converted)",9.07 mL/min
same,Cmax,"human, in vivo, 180-330 mg/day (n = 140), read-out: Cmax, Mean",33400 ng/mL
same,Cmax,"human, in vivo, 180-330 mg/day (n = 140), read-out: Cmax, Median",30000 ng/mL
same,half-life,"human, in vivo, 180-330 mg/day (n = 140), read-out: T1/2, α, Mean (converted)",2.13 h
same,half-life,"human, in vivo, 180-330 mg/day (n = 140), read-out: T1/2, α, Median (converted)",2.13 h
same,half-life,"human, in vivo, 180-330 mg/day (n = 140), read-out: T1/2, β, Mean (converted)",29.7 h
same,half-life,"human, in vivo, 180-330 mg/day (n = 140), read-out: T1/2, β, Median (converted)",29.3 h
same,half-life,"human, in vivo, 180-330 mg/day (n = 140), read-out: T1/2, γ, Mean (converted)",376 h
same,half-life,"human, in vivo, 180-330 mg/day (n = 140), read-out: T1/2, γ, Median (converted)",373 h
same,AUC(0-t),"human, in vivo, <180 mg/day (n = 181), read-out: AUC0-24, Mean",90 µg·h/mL
same,AUC(0-t),"human, in vivo, <180 mg/day (n = 181), read-out: AUC0-24, Median",73.6 µg·h/mL
same,clearance,"human, in vivo, <180 mg/day (n = 181), read-out: CL, Mean (converted)",9.3 mL/min
same,clearance,"human, in vivo, <180 mg/day (n = 181), read-out: CL, Median (converted)",9.17 mL/min
same,Cmax,"human, in vivo, <180 mg/day (n = 181), read-out: Cmax, Mean",17800 ng/mL
same,Cmax,"human, in vivo, <180 mg/day (n = 181), read-out: Cmax, Median",14300 ng/mL
same,half-life,"human, in vivo, <180 mg/day (n = 181), read-out: T1/2, α, Mean (converted)",2.01 h
same,half-life,"human, in vivo, <180 mg/day (n = 181), read-out: T1/2, α, Median (converted)",1.97 h
same,half-life,"human, in vivo, <180 mg/day (n = 181), read-out: T1/2, β, Mean (converted)",27.4 h
same,half-life,"human, in vivo, <180 mg/day (n = 181), read-out: T1/2, β, Median (converted)",27.5 h
same,half-life,"human, in vivo, <180 mg/day (n = 181), read-out: T1/2, γ, Mean (converted)",376 h
same,half-life,"human, in vivo, <180 mg/day (n = 181), read-out: T1/2, γ, Median (converted)",387 h
same,AUC(0-t),"human, in vivo, >330 mg/day (n = 239), read-out: AUC0-24, Mean",750 µg·h/mL
same,AUC(0-t),"human, in vivo, >330 mg/day (n = 239), read-out: AUC0-24, Median",712 µg·h/mL
same,clearance,"human, in vivo, >330 mg/day (n = 239), read-out: CL, Mean (converted)",7.35 mL/min
same,clearance,"human, in vivo, >330 mg/day (n = 239), read-out: CL, Median (converted)",6.68 mL/min
same,Cmax,"human, in vivo, >330 mg/day (n = 239), read-out: Cmax, Mean",106000 ng/mL
same,Cmax,"human, in vivo, >330 mg/day (n = 239), read-out: Cmax, Median",105000 ng/mL
same,half-life,"human, in vivo, >330 mg/day (n = 239), read-out: T1/2, α, Mean (converted)",2.45 h
same,half-life,"human, in vivo, >330 mg/day (n = 239), read-out: T1/2, α, Median (converted)",2.35 h
same,half-life,"human, in vivo, >330 mg/day (n = 239), read-out: T1/2, β, Mean (converted)",31.4 h
same,half-life,"human, in vivo, >330 mg/day (n = 239), read-out: T1/2, β, Median (converted)",29.3 h
same,half-life,"human, in vivo, >330 mg/day (n = 239), read-out: T1/2, γ, Mean (converted)",353 h
same,half-life,"human, in vivo, >330 mg/day (n = 239), read-out: T1/2, γ, Median (converted)",347 h
same,clearance,"human, in vivo, healthy subjects, Multiple Dose (n = 109), read-out: CL (converted)",5.15 mL/min
same,half-life,"human, in vivo, healthy subjects, Multiple Dose (n = 109), read-out: T1/2, α (converted)",2.82 h
same,half-life,"human, in vivo, healthy subjects, Multiple Dose (n = 109), read-out: T1/2, β (converted)",33 h
same,half-life,"human, in vivo, healthy subjects, Multiple Dose (n = 109), read-out: T1/2, γ (converted)",320 h
same,clearance,"human, in vivo, healthy subjects, Single Dose (n = 91), read-out: CL (converted)",6.7 mL/min
same,half-life,"human, in vivo, healthy subjects, Single Dose (n = 91), read-out: T1/2, α (converted)",2.25 h
same,half-life,"human, in vivo, healthy subjects, Single Dose (n = 91), read-out: T1/2, β (converted)",19.8 h
same,half-life,"human, in vivo, healthy subjects, Single Dose (n = 91), read-out: T1/2, γ (converted)",316 h
